Experimental data reported in article PMC11544713, “The Application of Untargeted Metabolomic Approaches for the Search of Common Bioavailable Metabolites in Human Plasma Samples from Lippia citriodora and Olea europaea Extracts” (Journal of Agricultural and Food Chemistry, 2024).

Test: Acute intervention: nutrikinetics of plasma metabolites after ingestion of O. europaea extract (untargeted HPLC-ESI-QTOF-MS)
Method: A total of 25 healthy individuals participated, with an average age of 27 ± 9 years and a mean body mass index (BMI) of 23 ± 3 kg/m^2. None of the participants were taking any medications or nutritional supplements nor did they have any chronic diseases or gastrointestinal issues. The sample size was established based on findings from previous bioavailability research.[14] All participants provided informed consent before participating in the study.
The intervention study was carried out at Miguel Hernández University. Following an overnight fast, the volunteers were categorized into the subsequent groups: a subgroup to evaluate the LC leaf extract (n = 8), another for the OE leaf extract (n = 8), and the placebo subgroup (n = 9). This was a double-blind study, in which sample collection and treatment were carried out uniformly across all three subgroups.
Water was provided ad libitum. Prior to the ingestion of the capsule, a nurse inserted a cannula into the ulnar vein of each volunteer’s nondominant arm, and blood samples were drawn into EDTA-coated tubes at baseline (t = 0). Blood samples were then collected at 0.5, 1, 2, 4, 6, 8, and 10 h after the consumption of the 500 mg capsule. Plasma was separated through centrifugation (10 min at 3000 rpm and 4 °C) and stored at −80 °C until further analysis.
Plasma samples were initially treated using a mixture of methanol and ethanol (50:50; v:v) to remove proteins, following previously reported protocols.[19] During the sample treatment, pooled quality controls (pooled-QC) were prepared by combining equal aliquots from each sample. These QC samples were processed by using the same protocols as the experimental biological samples.
A reversed-phase analytical C18 column (Agilent Zorbax Eclipse Plus, 1.8 μm, 4.6 × 150 mm^2) with a protective cartridge with the same packing was used. MS data were acquired in negative ionization mode, operating in full scan across a mass-to-charge ratio (m/z) range of 50–1700. The analytical method used was adapted from that described by Villegas-Aguilar et al.[19]
Metabolite nutrikinetics were studied using PKSolver, an add-in program for pharmacokinetic data analysis in Microsoft Excel. The time to reach the maximum concentration (observed Tmax) was calculated for each significant metabolite. As an untargeted metabolomic approach was used to detect the circulating metabolites, these were not quantified. Therefore, the maximum concentration (Cmax) and area under the curve (AUC) parameters were calculated in a relative way by using the deconvoluted chromatographic areas. […] Statistical differences were determined by unpaired t tests. All p values less than 0.05 were considered statistically significant.

[1] = 0.5 h after O. europaea extract
[2] = human plasma, 500 mg capsule of O. europaea (OE) extract, oral, mean ± SD

| Compound | Cmax: relative maximum plasma level (human, in vivo, po, 500 mg) | observed Tmax: time required to reach Cmax (human, in vivo, po, 500 mg) [h] | mean chromatographic area in plasma, T0.5 (in vivo) | mean chromatographic area in plasma, T1 (in vivo) | mean chromatographic area in plasma, T2 (in vivo) | mean chromatographic area in plasma, T4 (in vivo) | mean chromatographic area in plasma, T6 (in vivo) | mean chromatographic area in plasma, T8 (in vivo) | mean chromatographic area in plasma, T10 (in vivo) | mean chromatographic area in plasma, T0.5 [1] | mean chromatographic area in plasma, T1 (1 h after O. europaea extract) | mean chromatographic area in plasma, T2 (2 h after O. europaea extract) | mean chromatographic area in plasma, T4 (4 h after O. europaea extract) | mean chromatographic area in plasma, T6 (6 h after O. europaea extract) | mean chromatographic area in plasma, T8 (8 h after O. europaea extract) | mean chromatographic area in plasma, T10 (10 h after O. europaea extract) | Cmax: relative maximum plasma level [2] | observed Tmax: time required to reach Cmax [2] [h] | further results |
| --- | --- | --- | --- | --- | --- | --- | --- | --- | --- | --- | --- | --- | --- | --- | --- | --- | --- | --- | --- |
| C=Cc1ccc(O)c(OC)c1 [p-vinylguaiacol] | 184 ± 45 relative chromatographic area | 1 ± 0 | 90 | 184 | 83 | 0 | 0 | 0 | 0 |  |  |  |  |  |  |  |  |  |  |
| oleuropein aglycone glucuronide [oleuropein aglycone glucuronide isomer 1] | 244 ± 128 relative chromatographic area | 0.8 ± 0.2 | 186 | 202 | 29 | 0 | 0 | 0 | 0 |  |  |  |  |  |  |  |  |  |  |
| CC(=O)Oc1cc2c(c(C)c1OC(C)=O)CC=C1[C@@]2(C)CC[C@@]2(C)C3C[C@](C)(C(=O)O)CC[C@]3(C)CC[C@]12C (some centres unmarked) [dihydrocelastryl diacetate] |  |  |  |  |  |  |  |  |  | 0 | 38 | 150 | 163 | 81 | 38 | 20 | 239 ± 78 relative chromatographic area | 3 ± 1 |  |
| O=C(O)CCCCCCCCC(=O)O [decanedioic acid isomer 2, decanedioic acid] |  |  |  |  |  |  |  |  |  | 0 | 0 | 26 | 47 | 84 | 38 | 60 | 112 ± 11 relative chromatographic area | 6 ± 3 |  |
| Oc1cc(O)c2c(c1)O[C@H](c1ccc(O)c(O)c1)[C@H](O)[C@H]2SCc1ccccc1 [4β-benzylthioepicatechin] |  |  |  |  |  |  |  |  |  | 25 | 123 | 151 | 50 | 0 | 0 | 0 | 158 ± 62 relative chromatographic area | 1.7 ± 0.5 |  |
| O=C(O)CCCCCCCCC(=O)O [decanedioic acid isomer 1, decanedioic acid] |  |  |  |  |  |  |  |  |  | 0 | 169 | 232 | 167 | 68 | 11 | 0 | 232 ± 48 relative chromatographic area | 2 ± 0 |  |
| homovanillyl alcohol glucuronide [homovanillyl alcohol glucuronide isomer 1] |  |  |  |  |  |  |  |  |  |  |  |  |  |  |  | 0 | 504 ± 154 relative chromatographic area | 1.1 ± 0.3 | mean chromatographic area in plasma, T0.5 (0.5 h after O. europaea extract, listed as homovanillic alcohol glucuronide isomer 1): 274; mean chromatographic area in plasma, T1 (1 h after O. europaea extract, listed as homovanillic alcohol glucuronide isomer 1): 503; mean chromatographic area in plasma, T2 (2 h after O. europaea extract, listed as homovanillic alcohol glucuronide isomer 1): 372; mean chromatographic area in plasma, T4 (4 h after O. europaea extract, listed as homovanillic alcohol glucuronide isomer 1): 183; mean chromatographic area in plasma, T6 (6 h after O. europaea extract, listed as homovanillic alcohol glucuronide isomer 1): 66; mean chromatographic area in plasma, T8 (8 h after O. europaea extract, listed as homovanillic alcohol glucuronide isomer 1): 26 |
| oleuropein aglycone glucuronide [oleuropein aglycone glucuronide isomer 2] |  | 0.9 ± 0.2 |  | 482 | 197 | 24 | 0 | 0 | 0 |  |  |  |  |  |  |  |  |  |  |
| 10-hydroxy-7 -methoxyoleuropein [10-hydroxy-7-methoxyoleuropein isomer 1] |  |  |  |  |  |  |  |  |  | 0 | 61 | 107 | 16 | 0 | 0 | 0 | 107 ± 22 relative chromatographic area | 2 ± 0 |  |
| COc1cc(CCC(=O)O)ccc1O[C@@H]1O[C@H](C(=O)O)[C@@H](O)[C@H](O)[C@H]1O [dihydroferulic acid 4-O-glucuronide] | 171 ± 110 relative chromatographic area | 2 ± 2 | 74 | 114 | 94 | 113 | 109 | 74 | 41 |  |  |  |  |  |  |  |  |  |  |
| homovanillyl alcohol glucuronide [homovanillyl alcohol glucuronide isomer 2] |  |  |  |  |  |  |  |  |  |  |  |  |  |  |  | 0 | 735 ± 257 relative chromatographic area | 1.6 ± 0.5 | mean chromatographic area in plasma, T0.5 (0.5 h after O. europaea extract, listed as homovanillic alcohol glucuronide isomer 2): 242; mean chromatographic area in plasma, T1 (1 h after O. europaea extract, listed as homovanillic alcohol glucuronide isomer 2): 677; mean chromatographic area in plasma, T2 (2 h after O. europaea extract, listed as homovanillic alcohol glucuronide isomer 2): 704; mean chromatographic area in plasma, T4 (4 h after O. europaea extract, listed as homovanillic alcohol glucuronide isomer 2): 365; mean chromatographic area in plasma, T6 (6 h after O. europaea extract, listed as homovanillic alcohol glucuronide isomer 2): 165; mean chromatographic area in plasma, T8 (8 h after O. europaea extract, listed as homovanillic alcohol glucuronide isomer 2): 61 |
| kaempferol sulfate | 172 ± 102 relative chromatographic area | 1.1 ± 0.3 | 25 | 165 | 59 | 0 | 0 | 0 | 0 |  |  |  |  |  |  |  |  |  |  |
| COc1cc(C(=O)O)ccc1OC1OC(C(=O)O)C(O)C(O)C1O (centres unmarked) [vanillic acid glucuronide] |  |  |  |  |  |  |  |  |  | 0 | 37 | 77 | 63 | 44 | 22 | 0 | 111 ± 48 relative chromatographic area | 4 ± 3 |  |
| O=C(O)CCCCCCCCC(=O)O [debacic acid isomer 3, sebacic acid] | 330 ± 109 relative chromatographic area | 6 ± 2 | 13 | 0 | 33 | 209 | 226 | 178 | 141 |  |  |  |  |  |  |  |  |  |  |
| C/C=C1/[C@H](O[C@@H]2O[C@H](CO)[C@@H](O)[C@H](O)[C@H]2O)OC=C(C(=O)OC)[C@H]1CC(=O)OCCc1ccc(O)c(O)c1 [oleuropein] |  |  |  |  |  |  |  |  |  |  |  |  |  |  |  |  |  |  | detection in plasma samples (in vivo): not detected as being significant in plasma samples |
